{
  "source": "patent US8852664B2",
  "about": "“Neo-menthyl derivatives as flavor materials” (Symrise AG, priority 2008, dated 2014)",
  "data": [
    {"assay": "Flavor profile determined by a trained panel of at least 5 testers", "format": "in vivo", "conditions": "table of further examples, prepared from racemic neo-menthol or neo-menthylamine and tasted", "protocol": "(§1) The flavor profiles were determined by a trained panel of at least 5 testers by tasting against a 0.5% strength salt and a 0.5% strength sugar solution", "values": [
      {"compound": "CCNC(=O)O[C@H]1C[C@H](C)CC[C@H]1C(C)C", "note": "(racemic)", "Flavor Profile": "cooling, umami, menthol note"},
      {"compound": "CC(C)[C@@H]1CC[C@@H](C)C[C@@H]1OC(=O)NCCCO", "note": "(racemic)", "Flavor Profile": "soapy, vegetable, asparagus, potato, mouthfeel, slightly umami"},
      {"compound": "COCCNC(=O)O[C@H]1C[C@H](C)CC[C@H]1C(C)C", "note": "(racemic)", "Flavor Profile": "sweet, umami"},
      {"compound": "COCCNC(=O)N[C@H]1C[C@H](C)CC[C@H]1C(C)C", "note": "(racemic)", "Flavor Profile": "fishy, salty, umami"},
      {"compound": "CCOCCCNC(=O)O[C@H]1C[C@H](C)CC[C@H]1C(C)C", "note": "(racemic)", "Flavor Profile": "rancid, musty, bitter, umami"},
      {"compound": "CC(C)[C@@H]1CC[C@@H](C)C[C@@H]1NC(=O)NCCOCCO", "note": "(racemic)", "Flavor Profile": "fatty, oily (fish), umami"},
      {"compound": "CCOCCCNC(=O)N[C@H]1C[C@H](C)CC[C@H]1C(C)C", "note": "(racemic)", "Flavor Profile": "fatty, tallow, dry- dusty, long-lasting, umami"},
      {"compound": "CC(C)[C@@H]1CC[C@@H](C)C[C@@H]1NC(=O)NCCO", "note": "(racemic)", "Flavor Profile": "alga, roasted note, umami, sweet"},
      {"compound": "CC(C)[C@@H]1CC[C@@H](C)C[C@@H]1OC(=O)NCCOCCO", "note": "(racemic)", "Flavor Profile": "fatty, tallow, oily, salty, metallic"},
      {"compound": "CC(C)[C@@H]1CC[C@@H](C)C[C@@H]1OC(=O)NCC1CCCO1", "note": "(mixture of isomers)", "Flavor Profile": "bitter, long-lasting, umami"},
      {"compound": "CC(C)[C@@H]1CC[C@@H](C)C[C@@H]1OC(=O)NC1CCCC1", "note": "(racemic)", "Flavor Profile": "bitter, salty"},
      {"compound": "CC(C)[C@@H]1CC[C@@H](C)C[C@@H]1NC(=O)NCc1ccccc1", "note": "(racemic)", "Flavor Profile": "long-lasting, umami"},
      {"compound": "CC(C)[C@@H]1CC[C@@H](C)C[C@@H]1NC(=O)NC1CCCC1", "note": "(racemic)", "Flavor Profile": "bitter, astringent, long-lasting, salty, metallic"},
      {"compound": "CC(C)[C@@H]1CC[C@@H](C)C[C@@H]1NC(=O)NCC1CCCO1", "note": "(mixture of isomers)", "Flavor Profile": "salty, weakly umami"},
      {"compound": "CC(C)[C@@H]1CC[C@@H](C)C[C@@H]1NC(=O)NCC1COC(C)(C)O1", "note": "(mixture of isomers)", "Flavor Profile": "sweet, umami"},
      {"compound": "COCC(C)NC(=O)O[C@H]1C[C@H](C)CC[C@H]1C(C)C", "note": "(mixture of isomers)", "Flavor Profile": "bitter, metallic, umami"},
      {"compound": "CC(C)[C@@H]1CC[C@@H](C)C[C@@H]1OC(=O)NCc1ccc2c(c1)OCO2", "note": "(racemic)", "Flavor Profile": "bitter, umami"},
      {"compound": "CC(C)[C@@H]1CC[C@@H](C)C[C@@H]1NC(=O)NC1CC1", "note": "(racemic)", "Flavor Profile": "bitter, long-lasting, salty, umami"},
      {"compound": "CC(C)[C@@H]1CC[C@@H](C)C[C@@H]1NC(=O)NCc1ccc2c(c1)OCO2", "note": "(racemic)", "Flavor Profile": "salty, weakly umami"},
      {"compound": "CC(C)[C@@H]1CC[C@@H](C)C[C@@H]1OC(=O)NC1CCCCC1", "note": "(racemic)", "Flavor Profile": "weakly sweet and weakly umami"},
      {"compound": "CC(C)[C@@H]1CC[C@@H](C)C[C@@H]1OC(=O)NCC1COC(C)(C)O1", "note": "(mixture of isomers)", "Flavor Profile": "sweet, bitter, caramel, salty"},
      {"compound": "CCOC(=O)CC(C)NC(=O)O[C@H]1C[C@H](C)CC[C@H]1C(C)C", "note": "(mixture of isomers)", "Flavor Profile": "bitter, dry-dusty, tingling, slightly umami"},
      {"compound": "CC(C)[C@@H]1CC[C@@H](C)C[C@@H]1OC(=O)NC1CC1", "note": "(racemic)", "Flavor Profile": "bitter, salty, umami"},
      {"compound": "CC(C)[C@@H]1CC[C@@H](C)C[C@@H]1OC(=O)Nc1ccccc1", "note": "(racemic)", "Flavor Profile": "bitter, dry, dusty, umami, dull"},
      {"compound": "CC(C)[C@@H]1CC[C@@H](C)C[C@@H]1OC(=O)NCCCCO", "note": "(racemic)", "Flavor Profile": "slightly bitter, salty, umami"},
      {"compound": "CC(C)[C@@H]1CC[C@@H](C)C[C@@H]1NC(=S)NC1CCCC1", "note": "(racemic)", "Flavor Profile": "bitter, long-lasting, umami, metallic"},
      {"compound": "COCCCNC(=S)N[C@H]1C[C@H](C)CC[C@H]1C(C)C", "note": "(racemic)", "Flavor Profile": "very bitter, umami"},
      {"compound": "CCNC(=S)N[C@H]1C[C@H](C)CC[C@H]1C(C)C", "note": "(racemic)", "Flavor Profile": "bitter, dry-dusty, umami"},
      {"compound": "COCC(C)NC(=S)N[C@H]1C[C@H](C)CC[C@H]1C(C)C", "note": "(mixture of isomers)", "Flavor Profile": "bitter, slightly umami"},
      {"compound": "CC(C)[C@@H]1CC[C@@H](C)C[C@@H]1NC(=S)NC1CC1", "note": "(racemic)", "Flavor Profile": "bitter, mouthfeel, umami"}
    ]},
    {"assay": "Flavor profile determined by a trained panel of at least 5 testers", "format": "in vivo", "conditions": "trained panel of at least 5 testers, tasting against a 0.5% strength salt and a 0.5% strength sugar solution", "protocol": "as §1", "values": [
      {"compound": "1-((1S,2S,5R)-2-Isopropyl-5-methyl-cyclohexyl)-3-(2-methoxy-1-methyl-ethyl)-urea (5)/1-((1R,2R,5S)-2-isopropyl-5-methyl-cyclohexyl)-3-(2-methoxy-1-methyl-ethyl)-urea (6) [Synthesis Example 3]", "Flavor Profile": "long-lasting, salty, umami"},
      {"compound": "3-[3-((1S,2S,5R)-2-Isopropyl-5-methyl-cyclohexyl)-ureido]-butyric acid ethyl ester (7)/3-[3-((1R,2R,5S)-2-isopropyl-5-methyl-cyclohexyl)-ureido]-butyric acid ethyl ester (8) [Synthesis Example 4]", "Flavor Profile": "bitter, salty, metallic, umami"},
      {"compound": "4-((1S,2S,5R)-2-Isopropyl-5-methyl-cyclohexyloxycarbonylamino)-butyric acid ethyl ester (11)/4-((1R,2R,5S)-2-isopropyl-5-methyl-cyclohexyloxycarbonylamino)-butyric acid ethyl ester (12) [Synthesis Example 6]", "Flavor Profile": "bitter, salty, umami"},
      {"compound": "COCCCNC(=O)O[C@H]1C[C@H](C)CC[C@H]1C(C)C", "note": "[(9), (3-methoxy-propyl)-carbamic acid (1S,2S,5R)-2-isopropyl-5-methyl-cyclohexyl ester]", "Flavor Profile": "umami, salty, metallic, bitter"},
      {"compound": "COCCCNC(=O)O[C@@H]1C[C@@H](C)CC[C@@H]1C(C)C", "note": "[(10), (3-methoxy-propyl)-carbamic acid (1R,2R,5S)-2-isopropyl-5-methyl-cyclohexyl ester]", "Flavor Profile": "umami, salty, metallic, not bitter"},
      {"compound": "CCOC(=O)CCCNC(=O)O[C@H]1C[C@H](C)CC[C@H]1C(C)C", "note": "[(11), 4-((1S,2S,5R)-2-isopropyl-5-methyl-cyclohexyloxycarbonylamino)-butyric acid ethyl ester]", "Flavor Profile": "salty, umami, relatively weak in comparison with the racemate"},
      {"compound": "CCOC(=O)CCCNC(=O)O[C@@H]1C[C@@H](C)CC[C@@H]1C(C)C", "note": "[(12), 4-((1R,2R,5S)-2-isopropyl-5-methyl-cyclohexyloxycarbonylamino)-butyric acid ethyl ester]", "Flavor Profile": "salty, umami, delayed and weaker in comparison with the racemate"}
    ]}
  ]
}
